System: human fibroplasts
Experiment: Membrane integrity test with a vital dye after exposure to perfluorocarbon liquid
Assay type: cell-based
Details: biological compatibility statement for the used examples

SMILES	toxicity to the cell
FC1(F)C(F)(F)C(F)(F)C2(F)C(F)(F)C(F)(F)C(F)(F)C(F)(F)C2(F)C1(F)F (centres unmarked) [perfluorodecalin]	non-toxic
FC(F)(F)C(F)(F)C(F)(F)C(F)(F)C(F)(F)C(F)(F)C(F)(F)C(F)(F)Br [perfluorooctylbromide]	non-toxic

From patent US20080227870A1, “Carcinogen Solvents in Reducing the Carcinogen Concentration of Cells” (priority 2004, published 2008)
